According to publication PMC2637266, “Quantification of gamma-secretase modulation differentiates inhibitor compound selectivity between two substrates Notch and amyloid precursor protein” (Molecular Brain, 2008):
Entries after “also recorded” stand apart in the source; their conditions may differ. Where two headings read alike, the source gives them in different places.

Target: T1, γ-secretase cleavage of APP C100-Flag (Homo sapiens, UniProt P49768)
T1 construct: substrate made in E. coli
Test: In vitro γ-secretase activity assay, Aβ generated from C100-Flag, ELISA
Assay type: biochemical
Details: for γ-secretase cleavage of APP in vitro at low concentrations: 0.1 nM to 10 nM; for IC50: C100-Flag, 37°C, 4 hr; for Aβ production in vitro, dose response: C100Flag, increasing concentrations
Protocol: To characterize the direct effect of two γ-secretase inhibitors cpd E and DAPT on APP/Notch cleavage, a conventional in vitro γ-secretase assay to quantify their inhibitory potency was used. The incubation of γ-secretase complex with purified substrates at 37°C for 4 hr was followed by Western Blot (WB) to determine the quantity of newly generated NICD. A newly generated band that corresponds to the predicted size of the NICD-Flag was detected (Fig. 1A and 1B).
Figure 1 Generation of NICD and Aβ from purified APP and Notch substrate C100 and N100 in an in vitro γ-secretase activity assay. The E. coli generated APP- and Notch-based, 100-residue γ-secretase substrates C100-Flag and N100-Flag were mixed with the membrane vesicles solubilized in CHAPSO after DMSO or compounds were added. The mixture was incubated at 37°C for 4 hours. A. A dose-dependent inhibition of NICD generation by DAPT. Generation of NICD was detected by Western blot (WB) with antibody 1744 specifically recognizing N-terminus of NICD. B. Generation of NICD was inhibited in the presence of 100 nM of cpd E. C. Levels of NICD determined by WB were quantified by densitometry (dotted line). Levels of Aβ generated from the γ-secretase cleavage of C100 in the presence of DAPT were determined by ELISA (solid line). […] D. NICD (dotted line) and Aβ (solid line) generation in the presence of cpd E were compared.
The same preparation of γ-secretase complex was mixed with C100Flag followed by ELISA to quantify the levels of newly generated Aβ.
The E. coli generated APP- and Notch-based, 100-residue γ-secretase substrates C100-Flag and N100-Flag were purified as previously described. C100-Flag substrate contains an initiating methionine, the 99 C-terminal residues of APP that start at the […], and a Flag tag. N100-Flag substrate contains a similar initiating methionine, 99 amino acids that start at the TACE cleavage site, and a Flag tag. The membrane vesicles were solubilized in 1% CHAPSO-HEPES and diluted in a final concentration of 0.2% CHAPSO-HEPES. Phosphatidylethanolamine (PE) and phosphatidylcholine (PC) were added to the final concentration of 0.02% PE and 0.08% PC. After adding DMSO or test compounds to the solubilized γ-secretase complex, substrate C100-Flag or N100-Flag was added to the mixture, then followed by incubation at 37°C for 4 hours. Two compounds have been used in this study, compound E (cpd E), {(S,S)-2-[2-(3,5-Difluorophenyl)-acetylamino]-N-(1-methyl-2-oxo-5-phenyl-2,3-dihydro-1H-benzo [e] [1,4] diazepin-3-yl)-propionamide} [57] and DAPT {N-[N-(3,5-Difluorophenacetyl-L-alanyl)]-S-phenylglycine t-Butyl Ester} [79]. Cpd E was provided by Dr. Michael Wolfe.
Sandwich ELISAs for Aβ were performed as described. The capture antibodies, 2G3 (to Aβ residues 33–40) and 4G8 (to Aβ residues 17–24), were used for Aβ40 and Aβ total species, respectively. The detecting antibodies were biotinylated 82E1 (to Aβ residues 1–16) for Aβ1–40/total or biotinylated 266 for Aβx-40 species. The use of mid-region and C-terminal capturing antibodies and N-terminal detecting antibody for chimeric "Notch-Aβ-like" peptide (Nβ*) has been documented. The combination of several capture/detecting antibodies are use to measure Aβ and Nβ* derived from different precursors. The capture antibody 2G3 and detecting antibody 82E1 were used for measuring Nβ* from APP-α-Notch expressing cells. Since the APP-α-NOTCH is the fusion protein with its juxtamembrane portion of the APP ectodomain (the α-secretase cleavage region) replaced by the corresponding sequence in Notch, the epitopes in APP sequence could still be recognized by 2G3 (C-terminus) and 82E1 (N-terminus). The capture antibody 4G8 and detecting antibody 82E1 were used for measuring Nβ* from APP-m-Notch expressing cells. […]

T1 sequence (Q96BI3 whole entry, other chains not shown): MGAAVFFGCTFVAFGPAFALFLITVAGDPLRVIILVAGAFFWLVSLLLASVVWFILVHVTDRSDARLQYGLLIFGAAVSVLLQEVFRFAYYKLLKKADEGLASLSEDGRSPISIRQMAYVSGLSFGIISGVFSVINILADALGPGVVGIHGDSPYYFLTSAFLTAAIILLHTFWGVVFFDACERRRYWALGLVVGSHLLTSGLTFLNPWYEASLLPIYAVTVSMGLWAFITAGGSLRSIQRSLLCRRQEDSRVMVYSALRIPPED
T1 sequence (Q92542 34-709, other chains not shown, further chain): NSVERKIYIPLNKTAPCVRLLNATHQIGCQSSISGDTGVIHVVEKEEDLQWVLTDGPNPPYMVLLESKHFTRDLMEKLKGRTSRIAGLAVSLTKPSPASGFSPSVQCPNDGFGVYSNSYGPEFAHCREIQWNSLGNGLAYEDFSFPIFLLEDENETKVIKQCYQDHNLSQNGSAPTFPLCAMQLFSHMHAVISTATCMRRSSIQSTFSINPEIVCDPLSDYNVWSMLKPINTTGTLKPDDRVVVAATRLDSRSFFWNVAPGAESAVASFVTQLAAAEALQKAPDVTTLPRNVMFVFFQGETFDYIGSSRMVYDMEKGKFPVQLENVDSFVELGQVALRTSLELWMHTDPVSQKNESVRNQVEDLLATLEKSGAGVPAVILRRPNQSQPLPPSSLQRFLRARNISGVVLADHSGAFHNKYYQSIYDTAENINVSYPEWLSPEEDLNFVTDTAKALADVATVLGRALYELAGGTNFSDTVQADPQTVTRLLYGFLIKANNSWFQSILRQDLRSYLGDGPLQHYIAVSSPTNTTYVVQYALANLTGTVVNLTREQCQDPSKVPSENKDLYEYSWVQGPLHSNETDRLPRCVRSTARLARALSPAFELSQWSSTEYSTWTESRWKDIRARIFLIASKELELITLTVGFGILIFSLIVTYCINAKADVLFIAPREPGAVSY
T1 sequence (Q9NZ42 whole entry, other chains not shown, further chain): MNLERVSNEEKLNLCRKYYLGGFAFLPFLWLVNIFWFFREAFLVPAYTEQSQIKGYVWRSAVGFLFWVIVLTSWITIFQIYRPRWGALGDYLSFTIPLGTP

Compound	γ-secretase cleavage of APP in vitro at low concentrations	Aβ production in vitro (10 and 100 μM)	IC50 (read-out: concentration inhibiting levels of Aβ to 50% in vitro) [nM]	Aβ production in vitro, dose response	Aβ generation from APP C100 in vitro (100 nM (0.1 μM))	IC50 (read-out: IC50 for Aβ generation (levels of Aβ reduced to 50%) in vitro) [nM]
C[C@H](NC(=O)Cc1cc(F)cc(F)c1)C(=O)N[C@H](C(=O)OC(C)(C)C)c1ccccc1 [DAPT, N-[N-(3,5-Difluorophenacetyl-L-alanyl)]-S-phenylglycine t-Butyl Ester]	did not inhibit	complete depletion of Aβ production	1000	dose-dependent reduction of Aβ production		
C[C@H](NC(=O)Cc1cc(F)cc(F)c1)C(=O)N[C@H]1N=C(c2ccccc2)c2ccccc2N(C)C1=O [cpd E, (S,S)-2-[2-(3,5-Difluorophenyl)-acetylamino]-N-(1-methyl-2-oxo-5-phenyl-2,3-dihydro-1H-benzo [e] [1,4]diazepin-3-yl)-propionamide]	selectively inhibited the γ-secretase cleavage of APP			dose-dependent reduction of Aβ production	could almost deplete any Aβ generation; also recorded: completely blocked Aβ generation	1
